Source: patent publication US11053218B2, “3-(1-oxoisoindolin-2-yl)piperidine-2,6-dione derivatives and uses thereof” (Novartis AG, priority 2017, dated 2021)
“Also recorded” adds a separate entry of the source.

Columns and labels:
Type in all cases: cell-based
[1] = biological target: IKZF2 (Homo sapiens, UniProt Q96SW2+Q9UKS7); test: Prolabel quantification of IKZF2 protein levels in 293GT cells
[2] = biological target: IKZF1 (Homo sapiens, UniProt Q13422+Q96SW2); test: Prolabel quantification of IKZF1 protein levels in 293GT cells; conditions: Prolabel assay, read-out: IKZF1 EC50
[3] = biological target: GSPT1 (Homo sapiens, UniProt P15170+Q96SW2); test: Prolabel quantification of GSPT1 protein levels in 293GT cells; conditions: Prolabel assay, read-out: GSPT1 EC50
[4] = tested on: primary human regulatory T cells; test: Expansion of purified primary human Treg cells in the presence of compound; conditions: FIG. 1
Method: (§1) Human buffy coats were obtained from BioreclamationIVT, in the USA. CD4+ T cells were isolated from said buffy coats using the RosetteSep Human CD4+ T cell enrichment Cocktail (Stemcell technologies, USA) and gradient centrifugation over Ficoll Paque Plus (GE HealthCare LifeSciences, USA) as per manufacturer's recommendations. Cells were resuspended in RPMI medium supplemented with 1% penicillin-Streptomycin solution, 10% Fetal Bovine Serum, HEPES (10 mM), MEM NEAA ([…]), sodium pyruvate (1 mM) (all supplements from Thermo Fisher Scientific, USA), thereafter referred to as complete RPMI (cRPMI), and rested overnight at 37° C., 5% CO2 in the presence of 2 U/mL rhIL-2 (Proleukin, Novartis). Cells were collected and resuspended in autoMACS Running Buffer supplemented with BSA (Miltenyi Biotec, USA) and labelled using CD4-FITC antibody (clone RPA-T4), CD25-APC antibody (clone M-A251) (Biolegend) and CD25 Microbeads (Miltenyi Biotec, USA). CD25-enriched cells were then isolated using the autoMACS Pro Separator. A highly purified population of Treg cells was then obtained by further sorting CD4+CD25Hi cells using a Sony SH800 cell sorter. The resulting Treg cell population was routinely above 90% pure according to FOXP3 expression. […]
Cell were collected and counted and the fold expansion was calculated as (number of cells recovered)/(number of cells plated). […]

[5] = tested on: primary human regulatory T cells
[6] = tested on: primary human regulatory T cells; test: In vitro suppression of the proliferation of CD4+ T cells by expanded Treg cells; conditions: five independent donors, vs DMSO, FIG. 3
Method: as §1, with “Separator.” for “Separator. A highly purified population of Treg cells was then obtained by further sorting CD4+CD25Hi cells using a Sony SH800 cell sorter. The resulting Treg cell population was routinely above 90% pure according to FOXP3 expression.”
Primary human PBMCs were obtained from freshly prepared buffy coats (BioReclamationIVT) using gradient centrifugation over Ficoll Paque Plus as per manufacturer's recommendations. […] Proliferation was assessed in each population as the proportion of cells having diluted CFSE. Suppression was assessed for each condition in comparison to the responders plated alone.

Sequence of IKZF2 (Q9UKS7 whole entry): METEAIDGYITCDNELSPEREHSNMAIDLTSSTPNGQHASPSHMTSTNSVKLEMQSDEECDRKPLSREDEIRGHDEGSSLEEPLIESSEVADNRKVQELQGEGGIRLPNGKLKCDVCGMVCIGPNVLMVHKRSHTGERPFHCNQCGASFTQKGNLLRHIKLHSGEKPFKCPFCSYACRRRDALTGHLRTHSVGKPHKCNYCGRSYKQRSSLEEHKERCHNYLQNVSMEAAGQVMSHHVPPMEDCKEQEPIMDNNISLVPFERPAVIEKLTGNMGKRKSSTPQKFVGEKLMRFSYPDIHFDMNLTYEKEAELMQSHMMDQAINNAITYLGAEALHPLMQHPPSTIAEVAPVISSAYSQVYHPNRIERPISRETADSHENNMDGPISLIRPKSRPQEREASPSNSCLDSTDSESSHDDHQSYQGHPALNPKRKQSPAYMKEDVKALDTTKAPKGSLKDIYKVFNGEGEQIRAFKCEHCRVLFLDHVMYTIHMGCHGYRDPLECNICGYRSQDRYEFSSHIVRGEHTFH
Sequence of IKZF2 (Q96SW2 whole entry): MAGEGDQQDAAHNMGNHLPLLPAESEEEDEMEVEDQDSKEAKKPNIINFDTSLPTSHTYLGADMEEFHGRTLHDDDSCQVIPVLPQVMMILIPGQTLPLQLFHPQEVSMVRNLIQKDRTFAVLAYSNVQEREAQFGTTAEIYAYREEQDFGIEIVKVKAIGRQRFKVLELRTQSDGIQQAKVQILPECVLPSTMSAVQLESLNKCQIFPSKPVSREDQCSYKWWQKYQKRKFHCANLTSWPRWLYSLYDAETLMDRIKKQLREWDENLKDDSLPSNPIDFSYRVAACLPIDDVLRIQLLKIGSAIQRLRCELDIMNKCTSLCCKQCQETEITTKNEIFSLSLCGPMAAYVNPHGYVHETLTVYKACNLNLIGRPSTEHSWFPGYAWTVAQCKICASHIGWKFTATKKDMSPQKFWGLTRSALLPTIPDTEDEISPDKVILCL
Sequence of IKZF2 (Q16531 whole entry partner): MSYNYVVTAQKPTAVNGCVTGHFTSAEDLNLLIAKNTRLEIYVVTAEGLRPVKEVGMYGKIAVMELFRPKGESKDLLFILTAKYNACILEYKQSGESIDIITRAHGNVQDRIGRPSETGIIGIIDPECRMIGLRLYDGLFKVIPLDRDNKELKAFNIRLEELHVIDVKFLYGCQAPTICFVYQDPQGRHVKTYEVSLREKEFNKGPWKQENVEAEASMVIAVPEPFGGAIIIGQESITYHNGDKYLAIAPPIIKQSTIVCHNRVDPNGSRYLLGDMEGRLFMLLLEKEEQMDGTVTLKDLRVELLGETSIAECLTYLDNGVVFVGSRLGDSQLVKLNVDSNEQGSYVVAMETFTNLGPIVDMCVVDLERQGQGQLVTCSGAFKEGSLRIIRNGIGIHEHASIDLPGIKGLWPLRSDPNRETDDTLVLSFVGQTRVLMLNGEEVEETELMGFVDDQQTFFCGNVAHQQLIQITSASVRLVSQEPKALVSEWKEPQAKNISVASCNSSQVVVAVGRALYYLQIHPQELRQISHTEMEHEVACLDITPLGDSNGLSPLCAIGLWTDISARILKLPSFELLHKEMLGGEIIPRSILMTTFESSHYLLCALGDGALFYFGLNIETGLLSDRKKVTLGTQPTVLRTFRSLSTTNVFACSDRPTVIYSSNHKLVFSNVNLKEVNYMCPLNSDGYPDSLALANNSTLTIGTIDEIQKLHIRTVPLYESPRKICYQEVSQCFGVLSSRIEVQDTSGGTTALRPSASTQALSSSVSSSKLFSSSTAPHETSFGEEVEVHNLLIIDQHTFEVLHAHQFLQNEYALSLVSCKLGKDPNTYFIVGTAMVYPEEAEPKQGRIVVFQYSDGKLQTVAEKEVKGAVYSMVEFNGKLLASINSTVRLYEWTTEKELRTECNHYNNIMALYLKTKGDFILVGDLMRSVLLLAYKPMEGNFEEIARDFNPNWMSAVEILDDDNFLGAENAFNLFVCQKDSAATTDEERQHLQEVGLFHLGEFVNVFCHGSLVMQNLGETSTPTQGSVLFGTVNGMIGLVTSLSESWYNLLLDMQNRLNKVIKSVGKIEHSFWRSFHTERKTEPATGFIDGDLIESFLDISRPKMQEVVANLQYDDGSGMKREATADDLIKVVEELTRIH
Sequence of GSPT1 (P15170 whole entry): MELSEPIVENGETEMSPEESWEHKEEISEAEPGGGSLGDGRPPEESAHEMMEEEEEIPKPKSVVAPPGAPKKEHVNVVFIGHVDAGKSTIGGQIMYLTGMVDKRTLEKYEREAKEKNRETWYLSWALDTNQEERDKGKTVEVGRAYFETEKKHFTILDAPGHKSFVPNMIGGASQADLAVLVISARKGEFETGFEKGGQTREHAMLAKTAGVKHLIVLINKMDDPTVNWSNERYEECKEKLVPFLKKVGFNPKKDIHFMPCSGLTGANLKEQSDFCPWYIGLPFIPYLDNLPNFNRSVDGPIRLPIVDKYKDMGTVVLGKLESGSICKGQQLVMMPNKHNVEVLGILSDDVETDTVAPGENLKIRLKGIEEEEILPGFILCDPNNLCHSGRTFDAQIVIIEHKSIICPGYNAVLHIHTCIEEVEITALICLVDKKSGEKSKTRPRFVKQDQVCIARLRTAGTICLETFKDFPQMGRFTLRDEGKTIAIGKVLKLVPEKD
Sequence of GSPT1 (Q96SW2 whole entry): as the sequence (Q96SW2 whole entry) above
Sequence of GSPT1 (Q16531 whole entry partner): as the sequence (Q16531 whole entry partner) above
Sequence of IKZF1 (Q13422 whole entry): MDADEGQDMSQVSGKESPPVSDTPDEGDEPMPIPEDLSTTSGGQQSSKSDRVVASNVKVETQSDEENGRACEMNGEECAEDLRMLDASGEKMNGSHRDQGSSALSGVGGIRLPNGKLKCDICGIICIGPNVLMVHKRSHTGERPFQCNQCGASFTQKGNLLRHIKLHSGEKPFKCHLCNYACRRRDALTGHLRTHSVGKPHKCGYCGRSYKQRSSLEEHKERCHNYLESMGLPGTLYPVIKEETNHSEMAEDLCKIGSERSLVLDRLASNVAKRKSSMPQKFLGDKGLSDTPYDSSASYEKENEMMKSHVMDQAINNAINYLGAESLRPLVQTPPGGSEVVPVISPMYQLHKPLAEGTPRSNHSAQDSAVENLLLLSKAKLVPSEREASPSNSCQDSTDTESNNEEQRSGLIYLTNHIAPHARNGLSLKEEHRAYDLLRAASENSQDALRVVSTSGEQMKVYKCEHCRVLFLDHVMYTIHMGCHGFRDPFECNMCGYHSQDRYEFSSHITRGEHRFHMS
Sequence of IKZF1 (Q96SW2 whole entry): as the sequence (Q96SW2 whole entry) above
Sequence of IKZF1 (Q16531 whole entry partner): as the sequence (Q16531 whole entry partner) above

O=C1CCC(N2Cc3cc(C4CCN(Cc5ccccc5)CC4)ccc3C2=O)C(=O)N1 (stereo not drawn) [Compound I-57, 3-(5-(1-benzylpiperidin-4-yl)-1-oxoisoindolin-2-yl)piperidine-2,6-dione]
IKZF2 protein levels as compared to the control (DMSO) [1]: decreased
inhibition at 10 µM ([1]; 24 h, read-out: IKZF2 % protein reduction at 10 μM, 24 h): 70%
DC50 ([1]; Prolabel assay, 293GT cells, read-out: IKZF2 EC50): 0.009 µM
DC50 [2]: > 50 µM
DC50 [3]: > 50 µM
Treg cells expand less in the presence of compound ([4]; expanded in vitro 12 days, vs DMSO, compound 10 μM): 30%
Expansion of purified Treg cells as compared to the control ([4]; purified primary human Treg cells, DMSO control): impaired
Increase of the proportion of cells producing IL-2 (median) [5]: 2.16 fold
In vitro suppression of the proliferation of CD4+ T cells by expanded Treg cells [6]: impaired; also recorded: less able to repress
